Source: PubChem BioAssay (NCI)
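48-hour exposure; five concentrations; linearly interpolated endpoints. Abbreviation: GI50, concentration required for 50% inhibition of growth. The concentration for full growth arrest is given as TGI.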

Tests used:
Test in all cases: growth of human tumour cells (NCI), 48 h
CCRF-CEM leukemia = tested on: CCRF-CEM leukemia
SNB-75 CNS = tested on: SNB-75 CNS
MDA-N = tested on: MDA-N
SK-MEL-28 melanoma = tested on: SK-MEL-28 melanoma
MDA-MB-435 = tested on: MDA-MB-435
SNB-19 CNS = tested on: SNB-19 CNS
MDA-MB-231 breast = tested on: MDA-MB-231 breast
M14 melanoma = tested on: M14 melanoma
MOLT-4 leukemia = tested on: MOLT-4 leukemia
BT-549 breast = tested on: BT-549 breast

| SMILES | TGI (CCRF-CEM leukemia) [µM] | TGI (SNB-75 CNS) [µM] | TGI (MDA-N) [µM] | TGI (SK-MEL-28 melanoma) [µM] | TGI (MDA-MB-435) [µM] | TGI (SNB-19 CNS) [µM] | TGI (MDA-MB-231 breast) [µM] | TGI (M14 melanoma) [µM] | TGI (MOLT-4 leukemia) [µM] | TGI (BT-549 breast) [µM] | GI50 (SK-MEL-28 melanoma) [µM] | GI50 (SNB-75 CNS) [µM] | GI50 (MDA-MB-435) [µM] | GI50 (SNB-19 CNS) [µM] | GI50 (MDA-MB-231 breast) [µM] | GI50 (M14 melanoma) [µM] | GI50 (BT-549 breast) [µM] |
| --- | --- | --- | --- | --- | --- | --- | --- | --- | --- | --- | --- | --- | --- | --- | --- | --- | --- |
| CC1(C)O[C@H]2OC(CO)C(OS(C)(=O)=O)[C@H]2O1 (stereo partly drawn) | > 100 | > 100 | > 100 | > 100 | > 100 | > 100 | > 100 | > 100 | – | – | – | – | – | – | – | – | – |
| O=C(Cc1ccccc1)N=Nc1c(O)[nH]c2ccccc12 | > 100 | > 100 | > 100 | – | > 100 | > 100 | > 100 | > 100 | > 100 | > 100 | – | – | – | – | – | – | – |
| O=C(O)CN(CC(=O)O)Cc1ccn(-c2cccc(-n3ccc(CN(CC(=O)O)CC(=O)O)n3)n2)n1 | – | > 100 | > 100 | > 100 | > 100 | > 100 | > 100 | > 100 | > 100 | > 100 | – | – | – | – | – | – | – |
| COc1ccc(S(=O)(=O)Nc2ccc(-c3csc(N4C(=O)/C(=C/c5ccccc5)N=C4c4ccccc4)n3)cc2)cc1Cl | > 100 | > 100 | > 100 | > 100 | > 100 | > 100 | 46.2 | 71.9 | > 100 | – | – | – | – | – | – | – | – |
| O=C1c2ccccc2-c2nnc(-c3ccc(Cl)cc3)cc21 | > 10 | > 10 | > 10 | > 10 | > 10 | > 10 | > 10 | > 10 | > 10 | > 10 | – | – | – | – | – | – | – |
| O=C1C2=C(CCCCC2)C2CCCCC12O (stereo not drawn) | > 100 | > 100 | – | > 100 | – | > 100 | – | > 100 | > 100 | – | – | – | – | – | – | – | – |
| Cn1c(N=[N+]=[N-])cc(=O)n(C)c1=O | > 100 | – | > 100 | – | > 100 | > 100 | > 100 | > 100 | > 100 | > 100 | – | – | – | – | – | – | – |
| O=[N+]([O-])c1ccc2nc(/C=C(\O)c3ccccc3)c(/C=C(\O)c3ccccc3)nc2c1 | 35.8 | 32.1 | > 100 | > 100 | > 56.2 | > 100 | 39.4 | > 67.3 | 40.5 | 62.1 | 8.3 | – | – | – | – | – | – |
| Cc1oncc1NC1=CC(=O)C(=O)c2ccccc21 | 15 | 27.2 | – | 29.2 | 3.51 | 46.8 | 32.8 | 17 | 11.9 | 25 | – | – | – | – | – | – | – |
| COc1ccc(NCc2cnc3nc(N)nc(N)c3c2C)cc1 | > 100 | > 100 | – | > 100 | > 100 | > 100 | 0.962 | > 100 | > 100 | > 100 | – | – | – | – | – | – | – |
| CC(=O)Nc1ccc(-c2nnc(SCC(=O)Nc3cccc([N+](=O)[O-])c3)o2)cc1 | > 100 | 32.9 | – | 33.3 | – | – | – | 29.7 | > 100 | – | – | – | – | – | – | – | – |
| COC12OC3CC4(C)C(=CC3OC(OC(C)C1O)C2O)CCC1C4CCC2(C)C(c3ccc(=O)oc3)CCC12O (stereo not drawn) | 0.00208 | 0.00571 | 0.00434 | 0.0434 | 0.00564 | 0.00455 | 0.00792 | 0.00497 | < 0.001 | 0.00413 | – | – | – | – | – | – | – |
| CCCCCCCCCCCCCCCCCCOc1ccc(/C=C/C2=[N+](CCCl)CCO2)cc1 | > 100 | > 100 | > 100 | > 100 | > 100 | > 100 | > 100 | > 100 | > 100 | > 100 | – | – | – | – | – | – | – |
| CNc1ncnc2c1nnn2C | > 100 | > 100 | > 100 | > 100 | > 100 | > 100 | – | > 100 | > 100 | – | – | – | – | – | – | – | – |
| C[C@H](CN1CC(=O)NC(=O)C1)N1CC(=O)NC(=O)C1 | > 100 | > 100 | – | > 100 | – | > 100 | – | – | > 47.5 | – | – | – | – | – | – | – | – |
| C=CCCC(On1c(-c2ccc(Cl)cc2)csc1=S)c1ccccc1 (stereo not drawn) | > 100 | – | 13.4 | > 100 | > 100 | > 100 | > 100 | > 100 | > 100 | > 100 | – | – | – | – | – | – | – |
| NC(=O)CCC(NC(=O)c1cccc2c(=O)c3ccccc3[nH]c12)C(=O)O (stereo not drawn) | – | > 100 | > 100 | > 100 | > 100 | > 100 | > 100 | > 100 | > 100 | – | – | – | – | – | – | – | – |
| c1ccc(CCN2CCN=C2Cc2ccccc2)cc1 | > 100 | > 100 | > 100 | > 100 | – | > 100 | > 100 | > 100 | – | > 100 | – | – | – | – | – | – | – |
| Clc1ccc2nc(CC3CCCC3)[nH]c2c1 | > 100 | 56 | 38.5 | 63.9 | 25.9 | 64 | 43.6 | 38.2 | 35 | – | – | – | – | – | – | – | – |
| O=C1OC(c2ccc(Cl)cc2)(c2ccc(Cl)cc2)c2c1ccc1ccccc21 | > 100 | > 100 | – | > 100 | – | > 100 | – | – | > 100 | – | – | – | – | – | – | – | – |
| Cn1cc(-c2nc(-c3c[nH]c4ccncc34)cs2)c2cc(F)ccc21 | – | 2.6 | – | 3.04 | 3.06 | 3.38 | 3.1 | 3.37 | – | 3.4 | 1.63 | 1.26 | 1.64 | 1.83 | 1.55 | 1.79 | 1.8 |
| N#CCSc1c(-c2ccccc2)c(=O)n(-c2ccccc2)c(=S)n1-c1ccccc1 | > 100 | > 100 | > 100 | > 100 | > 100 | > 100 | – | > 100 | > 100 | – | – | – | – | – | – | – | – |
| CCCCCCCC(=O)OCC(C[As](=O)(O)O)OC(=O)CCCCCCC (stereo not drawn) | 28 | 31.1 | – | 29.3 | – | 28.2 | – | 28.5 | 51.9 | – | – | – | – | – | – | – | – |
